# From patent publication US10688099B2, “Methods for modulating the amount of RNA transcripts” (PTC Therapeutics, Inc., priority 2013, dated 2020)
# Tested on: human genes (total transcript abundance) in PNN 1-46 cells
# Test: RNA sequencing, total transcript abundance at the gene level, Compound vs DMSO control
# Assay type: cell-based
# Experimental: PNN 1-46 cells derived from a Type I SMA patient were treated with Compound 702 at 500 nM for 24 hours. RNA was purified with the RNeasy Mini Kit (Qiagen) for mRNA sequencing on HiSeq 2500 (Illumina Inc., San Diego, Calif.). The quality of the total RNA was assessed using UV spectrophotometry and agarose gel electrophoresis. Template DNA molecules suitable for cluster generation were prepared from 1 ug of total RNA samples using the TruSeq RNA Sample Preparation Kit v2 (Illumina Inc., San Diego, Calif.) according to the manufacturer's instructions. The size distribution of the libraries was estimated by electrophoresis on Agilent High Sensitivity Bioanalyzer microfluidic chips. The minimum and average sizes of the amplified libraries were determined to be >200 nucleotides and 300-340 nucleotides, respectively. Libraries were quantified using the KAPA Library Quantification Kit (KK4824, Kapa Biosystems, Boston, Mass.). The libraries were pooled at equimolar concentrations and diluted prior to loading onto the flow cell of the HiSeq 2500 (Illumina Inc., San Diego, Calif.) for both clustering and sequencing. The libraries were extended and bridge-amplified to create single sequence clusters using the TruSeq Rapid PE Cluster Kit—HS (Illumina Inc., San Diego, Calif.). Amplified clusters in the flow cell were then sequenced with 50-bp paired-end reads using the TruSeq Rapid SBS Kit—HS (Illumina Inc., San Diego, Calif.) in rapid run mode. Real time image analysis and base calling were performed on the HiSeq 2500 instrument using the HiSeq Sequencing Control Software (HCS). […]
# In order to estimate gene expression levels, paired-end RNAseq reads were subsequently mapped to RefSeq human transcripts (release 60) and the human genome (hg19) by using the short read aligner Bowtie2 (Langmead et al., 2012. Nature methods 9:357). The number of mapped reads for all transcript variants of a gene (counts) were combined into a single value and normalized denoted as rpkms (number of mapped reads per kilobase transcript per million sequenced reads, (Mortazavi et al., 2008. Nature methods 5:621)). The splice-site analysis was performed by mapping the paired-end RNASeq reads to RefSeq human transcripts using the alignment software GSNAP with default parameters and the option ‘sam-multiple-primaries’ in order to account for reads that were mapped multiple times to different splice variants. The number of reads spanning splice-sites was determined by applying the samtools mpileup software with default parameters for each transcript. Reads having an alignment start or end exactly on the splice-site were excluded from the analysis (Wu et al., 2005, Bioinformatics 21:1859; Wu et al., 2010, Bioinformatics 26:873; Li et al., 2009, Bioinformatics 25:2078). […]
structure (smiles),measurement,setting,value
CCN1CCC(c2cc(C)c3nc(-c4cc5c(C)nc(C)cn5n4)cc(=O)n3c2)CC1 [Compound 702],"genes up- or downregulated, respectively, at threshold |Log2FC| 1","500 nM vs DMSO control, 11,714 human genes with rpkm >1, FIG. 2B",six
same,change in total mRNA abundance of SMN2,"500 nM vs DMSO control, PNN 1-46, 24 hours, FIG. 2A",no change
same,Log2FC of total transcript expression of POLN (DNA polymerase nu),"500 nM vs DMSO control, only changed gene among the gene families of FIG. 3",> 1
same,deregulation in gene families involved in DNA or RNA metabolism or cell survival,"500 nM, 24 hours, PNN 1-46, FIG. 3",No deregulation
